Measurements from patent US9763445B2, “Safened herbicidal compositions comprising a pyridine carboxylic acid herbicide” (Dow AgroSciences, LLC, priority 2014, dated 2017).

How the values were obtained:
common poppy (PAPRH) = experiment: Postemergence greenhouse trial, % visual injury on common poppy; assay type: in vivo, Papaver rhoeas; details: Papaver rhoeas, post-emergence, alone, read-out: % visual injury, Ob
Method in brief: (§1)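 Herbicide rates g ae/ha, safener (cloquintocet-mexyl) rates g ai/ha; spray carrier 1.5% v/v crop oil concentrate, 187 L/ha, 2nd–3rd leaf stage. Rating: visual % injury at 20-22 d.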

winter rape (BRSNW) = experiment: Postemergence greenhouse trial, % visual injury on winter rape; assay type: in vivo, Brassica napus; details: for % visual injury, Ob: BRSNW
Method in brief: (§2)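 Visual injury, 0 (none) to 100 (complete kill), rated 20-22 d after overhead track-sprayer application at 187 L/ha; Colby's equation gave expected mixture responses. Herbicide (g ae/ha) and cloquintocet-mexyl safener (g ai/ha) diluted in aqueous 1.5% v/v Agri-dex, applied to weeds at 2–3 true leaves.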

kochia (KCHSC) = experiment: Postemergence greenhouse trial, % visual injury on kochia; assay type: in vivo, Kochia scoparia; details: for % visual injury, Ob / % visual injury, observed (Ob): KCHSC
Method in brief: as §1

thistle (CIRAR) = experiment: Postemergence greenhouse trial, % visual injury on thistle; assay type: in vivo, Cirsium arvense; details: for % visual injury, Ob: CIRAR
Method in brief: as §2

[1] = compound 0 g/ha, CQC-m 4.375 g/ha
[2] = compound 0 g/ha, CQC-m 8.75 g/ha
[3] = compound 0 g/ha, CQC-m 17.5 g/ha

CCCCCC(C)OC(=O)COc1ccc(Cl)c2cccnc12 (stereo not drawn) [CQC-m, cloquintocet-mexyl, reference compound]
0%: pest or weed control at 17.5 g/ha (common poppy (PAPRH); 17.5 g/ha) | pest or weed control at 35 g/ha (common poppy (PAPRH); 35 g/ha) | pest or weed control at 70 g/ha (common poppy (PAPRH); 70 g/ha) | % visual injury, Ob (winter rape (BRSNW); 4.375 g/ha, applied alone) | % visual injury, Ob (winter rape (BRSNW); 8.75 g/ha, applied alone) | % visual injury, Ob (winter rape (BRSNW); 17.5 g/ha, applied alone) | % visual injury, Ob (winter rape (BRSNW); 35 g/ha, applied alone) | % visual injury, Ob (winter rape (BRSNW); 70 g/ha, applied alone) | % visual injury, Ob (winter rape (BRSNW); compound 0, CQC-m 4.375 g/ha) | % visual injury, Ob (winter rape (BRSNW); compound 0, CQC-m 8.75 g/ha) | % visual injury, Ob (winter rape (BRSNW); compound 0, CQC-m 17.5 g/ha) | % visual injury, Ob (winter rape (BRSNW); compound 0, CQC-m 35 g/ha) | % visual injury, Ob (winter rape (BRSNW); compound 0, CQC-m 70 g/ha) | % visual injury, Ob (winter rape (BRSNW); [1]) | % visual injury, Ob (winter rape (BRSNW); [2]) | % visual injury, Ob (winter rape (BRSNW); [3]) | % visual injury, Ob (winter rape (BRSNW); compound 0 g/ha, CQC-m 35 g/ha) | % visual injury, Ob (winter rape (BRSNW); compound 0 g/ha, CQC-m 70 g/ha) | plant injury at 4.375 g/ha (winter rape (BRSNW); Brassica napus, post-emergence, alone, 4.375 g/ha, read-out: % visual injury, Ob) | plant injury at 8.75 g/ha (winter rape (BRSNW); Brassica napus, post-emergence, alone, 8.75 g/ha, read-out: % visual injury, Ob) | plant injury at 17.5 g/ha (winter rape (BRSNW); Brassica napus, post-emergence, alone, 17.5 g/ha, read-out: % visual injury, Ob) | plant injury at 35 g/ha (winter rape (BRSNW); Brassica napus, post-emergence, alone, 35 g/ha, read-out: % visual injury, Ob) | plant injury at 70 g/ha (winter rape (BRSNW); Brassica napus, post-emergence, alone, 70 g/ha, read-out: % visual injury, Ob) | pest or weed control at 4.375 g/ha (kochia (KCHSC); Bassia scoparia, post-emergence, alone, 4.375 g/ha, read-out: % visual injury, Ob) | pest or weed control at 8.75 g/ha (kochia (KCHSC); Bassia scoparia, post-emergence, alone, 8.75 g/ha, read-out: % visual injury, Ob) | pest or weed control at 17.5 g/ha (kochia (KCHSC); Bassia scoparia, post-emergence, alone, 17.5 g/ha, read-out: % visual injury, Ob) | pest or weed control at 20 g/ha (kochia (KCHSC); Bassia scoparia, post-emergence, alone, 20 g/ha, read-out: % visual injury, Ob) | pest or weed control at 35 g/ha (kochia (KCHSC); Bassia scoparia, post-emergence, alone, 35 g/ha, read-out: % visual injury, Ob) | pest or weed control at 40 g/ha (kochia (KCHSC); Bassia scoparia, post-emergence, alone, 40 g/ha, read-out: % visual injury, Ob) | pest or weed control at 70 g/ha (kochia (KCHSC); Bassia scoparia, post-emergence, alone, 70 g/ha, read-out: % visual injury, Ob) | pest or weed control at 80 g/ha (kochia (KCHSC); Bassia scoparia, post-emergence, alone, 80 g/ha, read-out: % visual injury, Ob) | % visual injury, Ob (kochia (KCHSC); 4.375 g/ha, applied alone) | % visual injury, Ob (kochia (KCHSC); 8.75 g/ha, applied alone) | % visual injury, Ob (kochia (KCHSC); 17.5 g/ha, applied alone) | % visual injury, Ob (kochia (KCHSC); 35 g/ha, applied alone) | % visual injury, Ob (kochia (KCHSC); 70 g/ha, applied alone) | % visual injury, Ob (kochia (KCHSC); compound 0, CQC-m 4.375 g/ha) | % visual injury, Ob (kochia (KCHSC); compound 0, CQC-m 8.75 g/ha) | % visual injury, Ob (kochia (KCHSC); compound 0, CQC-m 17.5 g/ha) | % visual injury, Ob (kochia (KCHSC); compound 0, CQC-m 35 g/ha) | % visual injury, Ob (kochia (KCHSC); compound 0, CQC-m 70 g/ha) | % visual injury, Ob (kochia (KCHSC); [1]) | % visual injury, Ob (kochia (KCHSC); [2]) | % visual injury, Ob (kochia (KCHSC); [3]) | % visual injury, Ob (kochia (KCHSC); compound 0 g/ha, CQC-m 35 g/ha) | % visual injury, Ob (kochia (KCHSC); compound 0 g/ha, CQC-m 70 g/ha) | % visual injury, observed (Ob) (kochia (KCHSC); compound 8 0 + CQC-m 4.375 g/ha) | % visual injury, observed (Ob) (kochia (KCHSC); compound 8 0 + CQC-m 8.75 g/ha) | % visual injury, observed (Ob) (kochia (KCHSC); compound 8 0 + CQC-m 17.5 g/ha) | % visual injury, observed (Ob) (kochia (KCHSC); compound 8 0 + CQC-m 35 g/ha) | % visual injury, observed (Ob) (kochia (KCHSC); compound 8 0 + CQC-m 70 g/ha) | % visual injury, Ob (thistle (CIRAR); 4.375 g/ha, applied alone) | % visual injury, Ob (thistle (CIRAR); 8.75 g/ha, applied alone) | % visual injury, Ob (thistle (CIRAR); 17.5 g/ha, applied alone) | % visual injury, Ob (thistle (CIRAR); 35 g/ha, applied alone) | % visual injury, Ob (thistle (CIRAR); 70 g/ha, applied alone) | % visual injury, Ob (thistle (CIRAR); compound 0, CQC-m 4.375 g/ha) | % visual injury, Ob (thistle (CIRAR); compound 0, CQC-m 8.75 g/ha) | % visual injury, Ob (thistle (CIRAR); compound 0, CQC-m 17.5 g/ha) | % visual injury, Ob (thistle (CIRAR); compound 0, CQC-m 35 g/ha) | % visual injury, Ob (thistle (CIRAR); compound 0, CQC-m 70 g/ha) | pest or weed control at 4.375 g/ha (thistle (CIRAR); Cirsium arvense, post-emergence, alone, 4.375 g/ha, read-out: % visual injury, Ob) | pest or weed control at 8.75 g/ha (thistle (CIRAR); Cirsium arvense, post-emergence, alone, 8.75 g/ha, read-out: % visual injury, Ob) | pest or weed control at 17.5 g/ha (thistle (CIRAR); Cirsium arvense, post-emergence, alone, 17.5 g/ha, read-out: % visual injury, Ob) | pest or weed control at 35 g/ha (thistle (CIRAR); Cirsium arvense, post-emergence, alone, 35 g/ha, read-out: % visual injury, Ob) | pest or weed control at 70 g/ha (thistle (CIRAR); Cirsium arvense, post-emergence, alone, 70 g/ha, read-out: % visual injury, Ob)
